Tests used:
[1] = drug substance without excipients
[2] = especially in its phosphate salt form
[3] = especially in its phosphate salt form; remark: listed apart in the source
[4] = drug substance without MCC

flowability, ffc (poorly flowable) [1]: 1.1
drug substance bulk density [2]: 0.1 to 0.3 g/mL
hygroscopicity [3]: hygroscopic
primary particle size [4]: ca. 4 micron
Compound: N#Cc1ccc([C@H]2CCc3cncn32)c(F)c1 [compound of formula (1), 4-[(5R)-6,7-dihydro-5H-pyrrolo[1,2-c]imidazol-5-yl]-3-fluorobenzonitrile]
